#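 Five concentrations, 48 hours, 96-well plates. TGI: total growth inhibition.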 Where a SMILES comes first, the peptide text is derived from it. [ ]: non-standard residue; d: D form. β3hI = CC[CH](C)[CH](N)CC(=O)O
# Columns and labels:
# Assay in all cases: growth of human tumour cells (NCI), 48 h
# [1] = tested on: OVCAR-3 ovarian
# [2] = tested on: EKVX NSCLC
# [3] = tested on: SK-MEL-2 melanoma
# [4] = tested on: SK-MEL-5 melanoma
# [5] = tested on: CCRF-CEM leukemia
# [6] = tested on: NCI/ADR-RES ovarian
# [7] = tested on: HCT-15 colon
# [8] = tested on: SF-295 CNS
# [9] = tested on: NCI-H522 lung
# [10] = tested on: SW-620 colon
# [11] = tested on: COLO 205 colon
# [12] = tested on: SF-268 CNS
# [13] = tested on: UO-31 renal
# [14] = tested on: CAKI-1 renal
# [15] = tested on: SK-OV-3 ovarian
# [16] = tested on: LOX IMVI melanoma
# [17] = tested on: TK-10 renal
# [18] = tested on: HCT-116 colon
# [19] = tested on: UACC-257 melanoma
# [20] = tested on: SF-539 CNS
# [21] = tested on: DU-145 prostate
# [22] = tested on: MCF7 breast
# [23] = tested on: OVCAR-4 ovarian
# [24] = tested on: HS 578T breast
# [25] = tested on: HOP-62 NSCLC
# [26] = tested on: MDA-MB-435
# [27] = tested on: U251 CNS
# [28] = tested on: MDA-MB-231 breast
# [29] = tested on: IGROV1 ovarian
# [30] = tested on: NCI-H23 lung
# [31] = tested on: KM12 colon
# [32] = tested on: OVCAR-8 ovarian
# [33] = tested on: 786-0 renal
# [34] = tested on: A498 renal
# [35] = tested on: SN12C renal
# [36] = tested on: RPMI-8226 leukemia
# [37] = tested on: HOP-92 NSCLC
# [38] = tested on: ACHN renal
# [39] = tested on: M14 melanoma
# [40] = tested on: MDA-N
# [41] = tested on: SK-MEL-28 melanoma
# [42] = tested on: PC-3 prostate
# [43] = tested on: OVCAR-5 ovarian
# [44] = tested on: BT-549 breast
# [45] = tested on: NCI-H226 lung
# [46] = tested on: HL-60(TB) leukemia
# [47] = tested on: UACC-62 melanoma
# [48] = tested on: MOLT-4 leukemia
# [49] = tested on: MALME-3M melanoma
# [50] = tested on: HT29 colon
# [51] = tested on: SNB-19 CNS
# [52] = tested on: SR leukemia
# [53] = tested on: A549 NSCLC
# [54] = tested on: T-47D breast
# [55] = tested on: NCI-H460 lung
# [56] = tested on: RXF 393 renal
# [57] = tested on: HCC-2998 colon
# [58] = tested on: K-562 leukemia
# [59] = tested on: SNB-75 CNS
smiles,measurement,setting,value
CCC(C)C(CC(=O)N1CCCC1C(=O)NC(C(=O)NC(C(=O)NCC(=O)NC(CC(N)=O)C(=O)NC(C(=O)NC(C(=O)NC(CCCCN)C(N)=O)C(C)CC)C(C)CC)C(C)C)C(C)CC)NC(=O)C(N)C(C)CC (stereo not drawn) (H-I[β3hI]PIVGNIIK-NH2; configuration not given here),TGI,[1],> 50 µM
same,TGI,[2],> 50 µM
same,TGI,[3],> 50 µM
same,TGI,[4],> 50 µM
same,TGI,[5],> 50 µM
same,TGI,[6],> 50 µM
same,TGI,[7],> 50 µM
same,TGI,[8],> 50 µM
same,TGI,[9],> 50 µM
same,TGI,[10],> 50 µM
same,TGI,[11],> 50 µM
same,TGI,[12],> 50 µM
same,TGI,[13],> 50 µM
same,TGI,[14],> 50 µM
same,TGI,[15],> 50 µM
same,TGI,[16],> 50 µM
same,TGI,[17],> 50 µM
same,TGI,[18],> 50 µM
same,TGI,[19],> 50 µM
same,TGI,[20],> 50 µM
same,TGI,[21],> 50 µM
same,TGI,[22],> 50 µM
same,TGI,[23],> 50 µM
same,TGI,[24],> 50 µM
same,TGI,[25],> 50 µM
same,TGI,[26],> 50 µM
same,TGI,[27],> 50 µM
same,TGI,[28],> 50 µM
same,TGI,[29],> 50 µM
same,TGI,[30],> 50 µM
same,TGI,[31],> 50 µM
same,TGI,[32],> 50 µM
same,TGI,[33],> 50 µM
same,TGI,[34],> 50 µM
same,TGI,[35],> 50 µM
same,TGI,[36],> 50 µM
same,TGI,[37],> 50 µM
same,TGI,[38],> 50 µM
same,TGI,[39],> 50 µM
same,TGI,[40],> 50 µM
same,TGI,[41],> 50 µM
same,TGI,[42],> 50 µM
same,TGI,[43],> 50 µM
same,TGI,[44],> 50 µM
same,TGI,[45],> 50 µM
same,TGI,[46],> 50 µM
same,TGI,[47],> 50 µM
same,TGI,[48],> 50 µM
same,TGI,[49],> 50 µM
same,TGI,[50],> 50 µM
same,TGI,[51],> 50 µM
same,TGI,[52],> 50 µM
same,TGI,[53],> 50 µM
same,TGI,[54],> 50 µM
COc1ccc(/C=C/C(=O)N[C@@H]2C(=O)N3[C@@H]2SC(C)(C)[C@@H]3C(=O)O)cc1,TGI,[1],> 100 µM
same,TGI,[2],> 100 µM
same,TGI,[3],> 100 µM
same,TGI,[4],> 100 µM
same,TGI,[5],> 100 µM
same,TGI,[6],> 100 µM
same,TGI,[55],> 100 µM
same,TGI,[7],> 100 µM
same,TGI,[8],> 100 µM
same,TGI,[9],> 100 µM
same,TGI,[10],> 100 µM
same,TGI,[11],> 100 µM
same,TGI,[12],> 100 µM
same,TGI,[13],> 100 µM
same,TGI,[14],> 100 µM
same,TGI,[15],> 100 µM
same,TGI,[16],> 100 µM
same,TGI,[17],> 100 µM
same,TGI,[18],> 100 µM
same,TGI,[56],> 100 µM
same,TGI,[19],> 100 µM
same,TGI,[57],> 100 µM
same,TGI,[20],> 100 µM
same,TGI,[21],> 100 µM
same,TGI,[22],> 100 µM
same,TGI,[23],> 100 µM
same,TGI,[24],> 100 µM
same,TGI,[25],> 100 µM
same,TGI,[26],> 100 µM
same,TGI,[27],> 100 µM
same,TGI,[28],> 100 µM
same,TGI,[30],> 100 µM
same,TGI,[31],> 100 µM
same,TGI,[32],> 100 µM
same,TGI,[33],> 100 µM
same,TGI,[34],> 100 µM
same,TGI,[35],> 100 µM
same,TGI,[36],> 100 µM
same,TGI,[37],> 100 µM
same,TGI,[38],> 100 µM
same,TGI,[39],> 100 µM
same,TGI,[40],> 100 µM
same,TGI,[41],> 100 µM
same,TGI,[42],> 100 µM
same,TGI,[43],> 100 µM
same,TGI,[44],> 100 µM
same,TGI,[45],> 100 µM
same,TGI,[46],> 100 µM
same,TGI,[58],> 100 µM
same,TGI,[47],> 100 µM
same,TGI,[48],> 100 µM
same,TGI,[59],> 100 µM
same,TGI,[50],> 100 µM
same,TGI,[51],> 100 µM
same,TGI,[52],> 100 µM
same,TGI,[53],> 100 µM
same,TGI,[54],> 100 µM
